# Test results from patent US20260014358A1, “THERMALLY REGULATED TRANSDERMAL DRUG DELIVERY SYSTEM” (Morningside Venture Investments Limited, priority 2018, published 2026).
# Like-named read-outs stand apart in the source and are kept apart here.
# Conditions: for Nicotine flow across the skin: passive matrix-type patch containing 21 mg nicotine on human cadaver skin, average of test patches (n=4)
# Method: Experiments were carried out by applying passive matrix-type nicotine patches containing 21 mg of nicotine to human cadaver skin and then periodically heating and cooling the patches over a period of 20 hours. Controls with no heating and cooling were tested concurrently. The test patches were subject to 3 cycles of heating and cooling while the control patches were not. Patches were heated for 2 hours, cooled for 5 hours, heated for 2 hours, cooled for 4 hours, heated for 2 hours, and cooled. Nicotine delivery across the skin was measured and averaged for control patches (n=2) and test patches (n=4).
compound,measurement,setting,value
CN1CCCC1c1cccnc1 (stereo not shown) [Nicotine],Nicotine flow across the skin,first 2-hour heating period,around 4.9 mg/hr
same,Change of nicotine flow across the skin when heat was applied,"heated and cooled test patches, 3 cycles over 20 hours, human cadaver skin",increased
same,Nicotine flow across the skin,second 2-hour heating period (after 5 hours cooling),around 2.5 mg/hr
same,Nicotine flow across the skin,third 2-hour heating period (after 4 hours cooling),around 1.8 mg/hr
